Results on 21 compounds are retold here after ChEMBL document CHEMBL5390198, “Scaffold hopping of N-benzyl-3,4,5-trimethoxyaniline: 5,6,7-Trimethoxyflavan derivatives as novel potential anticancer agents modulating hippo signaling pathway” (2023).

The inhibition is the percentage by which the read-out fell short of the control.

Holding throughout (assay type): functional
One assay relates to NCI-H460. In words: cells. The note with it: Homo sapiens, time 24-72 hrs.
For the next assay, the system named is HOP-92. Kind of assay: cells. As to conditions: Homo sapiens, time 24-72 hrs.
Another assay deals with A549. In words: cells. The note with it: Homo sapiens, time 24-72 hrs.
For another assay, the system named is NCI-H322M. In words: Antiproliferative activity against human NCI-H322M cells assessed as inhibition of cell growth at 10 uM measured after 24 to 72 hrs by SRB method relative to control. The note with it: time 24-72 hrs. In general terms: Sulforhodamine B stains cellular protein and so reports cell mass.
In a further assay the test system is EKVX. Kind of assay: cells. As to conditions: Homo sapiens, time 24-72 hrs.
In the next assay the test system is NCI-H23. Kind of assay: cells. The note with it: Homo sapiens, time 24-72 hrs.
The next assay concerns NCI-H522. In words: Antiproliferative activity against human NCI-H522 cells assessed as inhibition of cell growth at 10 uM measured after 24 to 72 hrs by SRB method relative to control. As to conditions: time 24-72 hrs.
The next assay concerns NCI-H226. Kind of assay: cells. As to conditions: Homo sapiens, time 24-72 hrs.
The next assay deals with HOP-62. Kind of assay: Antiproliferative activity against human HOP-62 cells assessed as inhibition of cell growth at 10 uM measured after 24 to 72 hrs by SRB method relative to control. As to conditions: time 24-72 hrs.

Each structure is given as a SMILES string. The source made the active and inactive calls. The calls are words filed in the database; no cut-off is given here.

Description for A549: Antiproliferative activity against human A549 cells assessed as inhibition of cell growth at 10 uM measured after 24 to 72 hrs by SRB method relative to control
Description for EKVX: Antiproliferative activity against human EKVX cells assessed as inhibition of cell growth at 10 uM measured after 24 to 72 hrs by SRB method relative to control
Description for HOP-92: Antiproliferative activity against human HOP-92 cells assessed as inhibition of cell growth at 10 uM measured after 24 to 72 hrs by SRB method relative to control
Description for NCI-H226: Antiproliferative activity against human NCI-H226 cells assessed as inhibition of cell growth at 10 uM measured after 24 to 72 hrs by SRB method relative to control
Description for NCI-H23: Antiproliferative activity against human NCI-H23 cells assessed as inhibition of cell growth at 10 uM measured after 24 to 72 hrs by SRB method relative to control
Description for NCI-H460: Antiproliferative activity against human NCI-H460 cells assessed as inhibition of cell growth at 10 uM measured after 24 to 72 hrs by SRB method relative to control

For the compound `COc1cccc(C(=O)Nc2cccc(C3CCc4c(cc(OC)c(OC)c4OC)O3)c2)c1` (stereo not given), the inhibition at 10 µM in the assay with NCI-H460 amounted to 4.3%; with HOP-92 it was 13%; in the assay with A549, 22.1%; in the assay with NCI-H322M, 18.6%; in the assay on EKVX it was 15.2%; in the assay with NCI-H23 it was 10.2%. The inhibition at 10 µM was 33.5% in the assay on NCI-H522, 24% with NCI-H226 and 8.46% in the assay with HOP-62.
Regarding `COc1cc(C(=O)Nc2cccc(C3CCc4c(cc(OC)c(OC)c4OC)O3)c2)cc(OC)c1OC` (stereo not given), the inhibition at 10 µM with NCI-H460 was found to be 12.7%; with HOP-92 it was 48.9%; with A549 it was 27.6%; in the assay with NCI-H322M, 3.54%; with EKVX, 19.5%; with NCI-H23, 6.7%. The inhibition at 10 µM in the assay with NCI-H522 was 56.8%; in the assay on NCI-H226, 23.8%; with HOP-62, 26.1%.
For `COc1cc2c(c(OC)c1OC)CCC(c1cccc(C(=O)Nc3ccc(C#N)cc3)c1)O2` (stereo not given), the inhibition at 10 µM with NCI-H460 turned out to be 43.5%; in the assay on HOP-92 it was 47.7%; in the assay with A549, 49.1%; in the assay on NCI-H322M, 22.6%; in the assay with EKVX it was 39.9%; in the assay with NCI-H23, 59.4%. The inhibition at 10 µM in the assay on NCI-H522 stood at 61.6%; in the assay on NCI-H226 it was 67%; in the assay on HOP-62 it was 27.9%.
On to `COc1cc2c(c(OC)c1OC)CCC(c1cccc(NC(=O)c3ccccc3Br)c1)O2` (stereo not given), for which the inhibition at 10 µM in the assay with HOP-92 is 8.39%; with A549 it was 13.8%; in the assay on NCI-H322M it was 6.37%; in the assay on EKVX it was 7.82%; in the assay on NCI-H23 it was 5.1%; with NCI-H522, 20.7%. The inhibition at 10 µM worked out at 14.6% in the assay with NCI-H226 and 2.7% with HOP-62.
On to `COc1cc2c(c(OC)c1OC)CCC(c1cccc(NC(=O)C(C)C)c1)O2` (stereo not given), for which the inhibition at 10 µM in the assay with A549 came to 10.7%; with NCI-H23, 2.65%; in the assay on NCI-H522, 9.48%; in the assay with NCI-H226, 3.99%. Moreover, the inhibition entry with NCI-H322M and in the assay with HOP-62 was “inactive” each time.
Consider `COc1cc2c(c(OC)c1OC)CCC(c1cccc(C(=O)Nc3cccc(Cl)c3)c1)O2` (stereo not given), for which the inhibition at 10 µM stood at 15% in the assay on NCI-H460; 91.5% with HOP-92; 38.5% with A549; 48.3% in the assay on NCI-H322M; 35.8% in the assay on EKVX; 14.2% with NCI-H23. The inhibition at 10 µM with NCI-H522 was 48.3%; in the assay with NCI-H226 it was 34.4%; with HOP-62 it was 20.4%.
On to `COc1cc2c(c(OC)c1OC)CCC(c1cccc(C(=O)Nc3ccccc3)c1)O2` (stereo not given), for which the inhibition at 10 µM was found to be 12.2% in the assay with NCI-H460; 77.9% in the assay on HOP-92; 15.8% in the assay with A549; 41.1% with NCI-H322M; 9.05% in the assay with EKVX; 15.3% in the assay with NCI-H23. Moreover, the figures for the inhibition at 10 µM with NCI-H522, with NCI-H226 and in the assay with HOP-62 were 38%, 25.6% and 6.18%, respectively.
`COc1cc2c(c(OC)c1OC)CCC(c1cccc(C(=O)NC(C)C)c1)O2` (stereo not given): the inhibition at 10 µM with NCI-H460 came out at 2.47%; in the assay on HOP-92, 19.7%; in the assay with A549 it was 1.14%; with NCI-H322M, 4.16%; in the assay with NCI-H23, 6.78%; with NCI-H522, 17%. For the same compound, the inhibition at 10 µM is 16.4% in the assay on NCI-H226 and 1.41% in the assay with HOP-62.
Consider `COc1cc2c(c(OC)c1OC)CCC(c1cccc(NC(=O)c3ccccc3)c1)O2` (stereo not given), for which the inhibition at 10 µM came to 5.1% with HOP-92; 19.5% in the assay on A549; 5.18% with NCI-H322M; 15.6% in the assay on NCI-H23; 24.3% in the assay with NCI-H522; 19.8% with NCI-H226. Further, the inhibition at 10 µM with HOP-62 was found to be 1.13%.
For `COc1cc2c(c(OC)c1OC)CCC(c1cccc(NC(=O)c3ccc(Br)cc3)c1)O2` (stereo not given), the inhibition at 10 µM in the assay with NCI-H460 was 6.47%; with HOP-92, 41.5%; in the assay with A549, 32.6%; in the assay on NCI-H322M, 24.9%; in the assay on EKVX it was 22.8%; in the assay with NCI-H23, 19.9%. Also, the inhibition at 10 µM in the assay with NCI-H522 was found to be 25.4%; in the assay on NCI-H226 it was 27.6%; with HOP-62 it was 12.8%.
`COc1cc2c(c(OC)c1OC)CCC(c1cccc(C(=O)Nc3ccccc3Br)c1)O2` (stereo not given): the inhibition at 10 µM in the assay with HOP-92 was 33.7%; with A549, 18.9%; with NCI-H322M, 5.11%; in the assay on EKVX it was 9.92%; with NCI-H23, 2.79%; in the assay on NCI-H522, 19.9%. For the same compound, the inhibition at 10 µM worked out at 7.74% with NCI-H226 and 7.73% in the assay on HOP-62.
For the compound `COc1cc2c(c(OC)c1OC)CCC(c1cccc(NC(=O)c3ccc([N+](=O)[O-])cc3)c1)O2` (stereo not given), the inhibition at 10 µM is 29% with NCI-H460; 15.7% with HOP-92; 32.2% with A549; 11% with NCI-H322M; 35.4% with EKVX; 34.2% with NCI-H23. The inhibition at 10 µM was 32.5% in the assay with NCI-H522, 50.7% in the assay with NCI-H226 and 7.28% in the assay with HOP-62.
On to `COc1ccccc1NC(=O)c1cccc(C2CCc3c(cc(OC)c(OC)c3OC)O2)c1` (stereo not given), for which the inhibition at 10 µM in the assay with NCI-H460 is 2.86%; in the assay with HOP-92, 9.4%; with A549, 9.57%; with NCI-H322M, 11.4%; with EKVX, 5.98%; with NCI-H23, 1.98%. In addition, the results for the inhibition at 10 µM with NCI-H522, in the assay on NCI-H226 and with HOP-62 were 27.7%, 8.23% and 8.84%, respectively.
In the case of `COc1cc2c(c(OC)c1OC)CCC(c1cccc(NC(=O)c3cccc(Br)c3)c1)O2` (stereo not given), the inhibition at 10 µM in the assay with HOP-92 came out at 6.02%; in the assay on A549, 18.8%; in the assay on NCI-H322M, 1.51%; in the assay on EKVX, 15.4%; in the assay with NCI-H23, 4.86%; with NCI-H522, 19%. Besides, the inhibition at 10 µM turned out to be 6.31% with NCI-H226 and 0.21% in the assay with HOP-62.
As for `COc1cccc(NC(=O)c2cccc(C3CCc4c(cc(OC)c(OC)c4OC)O3)c2)c1` (stereo not given), the inhibition at 10 µM in the assay with NCI-H460 was 16%; with HOP-92, 73.7%; in the assay on A549, 29.2%; in the assay on NCI-H322M, 45.8%; with EKVX it was 30.9%; with NCI-H23 it was 26.1%. Further, the values for the inhibition at 10 µM in the assay on NCI-H522, in the assay with NCI-H226 and in the assay with HOP-62 were 46.9%, 46.3% and 14.8%, respectively.
Consider `COc1cc2c(c(OC)c1OC)CCC(c1cccc(NC(=O)c3cccc(Cl)c3)c1)O2` (stereo not given), for which the inhibition at 10 µM turned out to be 3.06% in the assay on NCI-H460; 16.9% in the assay with HOP-92; 15% with A549; 9.74% in the assay on NCI-H322M; 14.1% in the assay on EKVX; 7.27% in the assay on NCI-H23. The inhibition at 10 µM turned out to be 37.9% with NCI-H522, 20.2% in the assay on NCI-H226 and 7.17% with HOP-62.
In the case of `COc1cc2c(c(OC)c1OC)CCC(c1cccc(C(=O)Nc3ccc([N+](=O)[O-])cc3)c1)O2` (stereo not given), the inhibition at 10 µM in the assay on NCI-H460 was 41.1%; with HOP-92 it was 57.4%; with A549, 44.8%; with NCI-H322M, 31.7%; in the assay with EKVX, 44.6%; in the assay with NCI-H23, 52.8%. In addition, the inhibition at 10 µM in the assay with NCI-H522 is 50.4%; with NCI-H226 it was 51.7%; in the assay on HOP-62 it was 23.3%.
`COc1cc2c(c(OC)c1OC)CCC(c1cccc(NC(=O)c3ccc(C#N)cc3)c1)O2` (stereo not given): the inhibition at 10 µM in the assay with NCI-H460 came to 5.83%; with HOP-92, 10.6%; with A549 it was 29.4%; in the assay with NCI-H322M, 11.1%; with EKVX it was 29%; in the assay on NCI-H23 it was 28.1%. Besides, the inhibition at 10 µM with NCI-H522 was 42.8%; with NCI-H226, 28.8%; with HOP-62 it was 21.8%.
For `COc1cc2c(c(OC)c1OC)CCC(c1cccc(C(=O)Nc3ccc(Br)cc3)c1)O2` (stereo not given), the inhibition at 10 µM is 16% with NCI-H460; 83% in the assay with HOP-92; 35.8% in the assay on A549; 50% in the assay with NCI-H322M; 39.5% with EKVX; 24.2% in the assay with NCI-H23. Moreover, the inhibition at 10 µM in the assay on NCI-H522 stood at 51.1%; in the assay on NCI-H226, 37.3%; in the assay with HOP-62 it was 18%.
As to `COc1cc2c(c(OC)c1OC)CCC(c1cccc(C(=O)Nc3cccc(Br)c3)c1)O2` (stereo not given), the inhibition at 10 µM in the assay on NCI-H460 was 29.5%; in the assay with HOP-92, 93.8%; in the assay with A549 it was 35.5%; with NCI-H322M, 49.1%; in the assay with EKVX, 49.6%; with NCI-H23, 22.5%. In addition, the values for the inhibition at 10 µM in the assay with NCI-H522, in the assay on NCI-H226 and with HOP-62 were 51.2%, 30.1% and 3.19%, respectively.
With `COc1ccccc1C(=O)Nc1cccc(C2CCc3c(cc(OC)c(OC)c3OC)O2)c1` (stereo not given), the inhibition at 10 µM with NCI-H460 was found to be 2.38%; with HOP-92 it was 4.05%; in the assay on A549, 11.7%; in the assay on NCI-H322M it was 3.14%; in the assay on EKVX it was 2.25%; in the assay with NCI-H23 it was 0.42%. Besides, the inhibition at 10 µM in the assay on NCI-H522 was 19.7%; in the assay with NCI-H226, 8.5%; in the assay with HOP-62, 4.59%.
